Measured values taken from ChEMBL document CHEMBL1133873, “Highly potent growth hormone secretagogues: hybrids of NN703 and ipamorelin” (Bioorg Med Chem Lett, 2001).
Where a SMILES comes first, the peptide text is derived from it. [ ]: non-standard residue; d: D form. d2Nal = N[C@H](Cc1ccc2ccccc2c1)C(=O)O; Aib = CC(C)(N)C(=O)O

How the values were obtained:
Rattus norvegicus [1] = species on record: Rattus norvegicus; test: Concentration required for GH release from isolated pituitary cells of rat tested in vitro; format: functional, cell-based; conditions: Pituitary gland cell
Rattus norvegicus [2] = species on record: Rattus norvegicus; test: Efficacy was determined as percent of GHRP-6 in rat pituitary cell assay tested in vitro; format: functional; conditions: Pituitary gland cell
Sus scrofa [3] = test: Release of growth hormone at single iv dose of 50 nmol/kg in pigs; format: functional
Sus scrofa [4] = test: Effective dose required for release of GH from pigs in vivo; format: functional

Row | SMILES | EC50 (Rattus norvegicus [1]) [nM] | Emax (Rattus norvegicus [2]) [%] | GHmax (Sus scrofa [3]) [ng/mL] | ED50 (Sus scrofa [4]) [µmol/kg]
1 | CC(=O)NCCCCCNC(=O)[C@H](Cc1ccccc1)N(C)C(=O)[C@H](Cc1ccc2ccccc2c1)N(C)C(=O)/C=C/CC(C)(C)N | 10 | 110 | 26 | 
2 | CN(C)CCCN(C)C(=O)[C@H](Cc1ccccc1)N(C)C(=O)[C@H](Cc1ccc2ccccc2c1)N(C)C(=O)/C=C/CC(C)(C)N | 2 | 105 | 45 | 
3 | CN(C)C(=O)CCCN(C)C(=O)[C@H](Cc1ccccc1)N(C)C(=O)[C@H](Cc1ccc2ccccc2c1)N(C)C(=O)/C=C/CC(C)(C)N | 21 | 105 | 21 | 
4 | CCNC(=O)NCCCCCNC(=O)[C@H](Cc1ccccc1)N(C)C(=O)[C@H](Cc1ccc2ccccc2c1)N(C)C(=O)/C=C/CC(C)(C)N | 14 | 95 | 8 | 
5 | CN(C(=O)/C=C/CC(C)(C)N)[C@@H](Cc1ccc(-c2ccccc2)cc1)C(=O)N(C)[C@@H](Cc1ccccc1)C(=O)NCCCN | 6 | 130 | 25 | 
6 | CN(C(=O)/C=C/CC(C)(C)N)[C@@H](Cc1ccc(-c2ccccc2)cc1)C(=O)N(C)[C@@H](Cc1ccccc1)C(=O)NCCN | 5 | 90 | 62 | 
7 | CN(C(=O)/C=C/CC(C)(C)N)[C@@H](Cc1ccc2ccccc2c1)C(=O)N(C)[C@@H](Cc1ccccc1)C(=O)NCCCCCN=C(N)N | 17 | 140 | 49 | 
8 | CN(C)C(=O)CN(C)C(=O)[C@H](Cc1ccccc1)N(C)C(=O)[C@H](Cc1ccc2ccccc2c1)N(C)C(=O)/C=C/CC(C)(C)N | 10 | 105 | 48 | 
9 | CNC(=O)CCCN(C)C(=O)[C@H](Cc1ccccc1)N(C)C(=O)[C@H](Cc1ccc2ccccc2c1)N(C)C(=O)/C=C/CC(C)(C)N | 30 | 100 | 32 | 
10 | CN(C)CCCN(C)C(=O)[C@H](Cc1ccccc1)N(C)C(=O)[C@H](Cc1ccc(-c2ccccc2)cc1)N(C)C(=O)/C=C/CC(C)(C)N | 4 | 95 | 50 | 
11 | CC(C)(N)C(=O)N[C@@H](Cc1c[nH]cn1)C(=O)N[C@H](Cc1ccc2ccccc2c1)C(=O)N[C@H](Cc1ccccc1)C(=O)N[C@@H](CCCCN)C(N)=O [IPAMORELIN] (H-[Aib]H[d2Nal][dF]K-NH2) |  | 85 | 54 | 0.0023

Further molecules by falling EC50 (Rattus norvegicus [1]), results first:

Row | EC50 (Rattus norvegicus [1]) [nM] | SMILES | Emax (Rattus norvegicus [2]) [%] | GHmax (Sus scrofa [3]) [ng/mL] | ED50 (Sus scrofa [4]) [µmol/kg]
12 | 1.8 | CN(C(=O)/C=C/CC(C)(C)N)[C@@H](Cc1ccc2ccccc2c1)C(=O)N(C)[C@@H](Cc1ccccc1)C(=O)N[C@@H](CCCCN)C(N)=O | 105 | 76 | 
13 | 1 | CN(C(=O)/C=C/CC(C)(C)N)[C@@H](Cc1ccc(-c2ccccc2)cc1)C(=O)N(C)[C@@H](Cc1ccccc1)C(=O)NCCCCCCN | 130 | 80 | 
14 | 1 | CN(C(=O)/C=C/CC(C)(C)N)[C@@H](Cc1ccc(-c2ccccc2)cc1)C(=O)N(C)[C@@H](Cc1ccccc1)C(=O)NCCCCN | 110 | 91 | 
15 | 0.6 | CC(C)(N)C(=O)N[C@H](COCc1ccccc1)C(=O)N1CCC2(CC1)CN(S(C)(=O)=O)c1ccccc12 [IBUTAMOREN] | 115 | 60 | 0.084
16 | 0.3 | CN(C)C(=O)[C@H](CCCCN)NC(=O)[C@H](Cc1ccccc1)N(C)C(=O)[C@H](Cc1ccc2ccccc2c1)N(C)C(=O)/C=C/CC(C)(C)N | 130 | 105 | 
17 | 0.15 | CN(C)C(=O)[C@H](CCCCN)NC(=O)[C@H](Cc1ccccc1)N(C)C(=O)[C@H](Cc1ccc(-c2ccccc2)cc1)N(C)C(=O)/C=C/CC(C)(C)N | 110 | 116 | 
